Laboratory results published in patent US11274083B2, “Substituted thiophenyl uracils, salts thereof and the use thereof as herbicidal agents” (Syngenta Crop Protection AG, priority 2017, dated 2022).

What was measured:
Format in all cases: in vivo
Abutilon theophrasti [1] = experiment: Herbicidal action post-emergence, greenhouse pot test
Method in brief: (§1)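 Efficacy is a visual percentage, 0% like untreated and 100% dead, read about 3 weeks after treatment under optimal greenhouse growth. Treatment was a post-emergence spray of aqueous WP or EC preparations at 80 g/ha or lower with 0.5% additive.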

Alopecurus myosuroides [2] = experiment: as above; conditions: scored visually after about 3 weeks vs untreated controls
Method in brief: as §1

Amaranthus retroflexus [3] = experiment: as above
Method in brief: as §1

Echinochloa crus-galli [4] = experiment: as above
Method in brief: as §1

Hordeum murinum [5] = experiment: as above
Method in brief: as §1

Lolium rigidum [6] = experiment: as above
Method in brief: as §1

Matricaria inodora [7] = experiment: as above
Method in brief: as §1

Pharbitis purpurea [8] = experiment: as above
Method in brief: as §1

Polygonum convolvulus [9] = experiment: as above
Method in brief: as §1

Setaria viridis [10] = experiment: as above
Method in brief: as §1

Stellaria media [11] = experiment: as above
Method in brief: as §1

Veronica persica [12] = experiment: as above
Method in brief: as §1

Viola tricolor [13] = experiment: as above
Method in brief: as §1

Zea mays = experiment: Crop compatibility post-emergence, greenhouse pot test
Method in brief: (§2)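 Sandy loam pots, greenhouse; one-leaf stage, 2–3 wk post-sowing; WP or EC, aq. spray on green parts, 0.5% additive, 600 L/ha; ~3 wk; visual score % vs untreated (0 = control-like, 100 = dead).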

Abutilon theophrasti [14] = experiment: Herbicidal action pre-emergence, greenhouse pot test
Method in brief: (§3)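 Soil-applied pre-emergence treatment: aqueous suspension or emulsion of WP or EC formulation, 0.5% additive, water equivalent to 600 L/ha, dose of 320 g/ha or lower. Readout is visual percent efficacy after ~3 weeks, where 0% equals control plants.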

Alopecurus myosuroides [15] = experiment: as above; conditions: application rate 320 g/ha
Method in brief: as §3

Amaranthus retroflexus [16] = experiment: as above; conditions: application rate 80 g/ha
Method in brief: as §3

Avena fatua = experiment: as above; conditions: application rate 320 g/ha
Method in brief: as §3

Echinochloa crus-galli [17] = experiment: as above; conditions: application rate 320 g/ha
Method in brief: as §3

Hordeum murinum [18] = experiment: as above; conditions: application rate 320 g/ha
Method in brief: as §3

Lolium rigidum [19] = experiment: as above; conditions: application rate 320 g/ha
Method in brief: as §3

Pharbitis purpurea [20] = experiment: as above
Method in brief: as §3

Polygonum convolvulus [21] = experiment: as above
Method in brief: as §3

Setaria viridis [22] = experiment: as above
Method in brief: as §3

Stellaria media [23] = experiment: as above; conditions: application rate 80 g/ha
Method in brief: as §3

Veronica persica [24] = experiment: as above
Method in brief: as §3

Viola tricolor [25] = experiment: as above
Method in brief: as §3

Matricaria inodora [26] = experiment: as above; conditions: application rate 80 g/ha
Triticum aestivum = experiment: Crop compatibility post-emergence, greenhouse pot test
Method in brief: as §2

Digitaria sanguinalis = experiment: Herbicidal action post-emergence, greenhouse pot test; conditions: application rate 20 g/ha
Cyperus esculentus = experiment: Herbicidal action pre-emergence, greenhouse pot test; conditions: application rate 320 g/ha
Method in brief: as §3

Oryza sativa = experiment: Crop compatibility post-emergence, greenhouse pot test; conditions: application rate 5 g/ha
Method in brief: as §2

**Q.** With CC(C)NC(=O)COC(=O)C(C)Sc1cc(-n2c(=O)cc(C(F)(F)F)n(C)c2=O)c(F)cc1Cl (centres unmarked) [I.1-184] as the compound, how does the “Abutilon theophrasti (Efficacy in %)” value (Abutilon theophrasti [1]; application rate 80 g/ha) read?
**A.** 100%

**Q.** And the “Alopecurus myosuroides (Efficacy in %)” value (Alopecurus myosuroides [2]; application rate 80 g/ha)?
**A.** 80%

**Q.** What about the “Amaranthus retroflexus (Efficacy in %)” value (Amaranthus retroflexus [3]; application rate 80 g/ha) of the same compound?
**A.** 100%

**Q.** And the “Echinochloa crus-galli (Efficacy in %)” value (Echinochloa crus-galli [4]; application rate 80 g/ha)?
**A.** 100%

**Q.** What about the “Hordeum murinum (Efficacy in %)” value (Hordeum murinum [5]; application rate 80 g/ha) of the same compound?
**A.** 80%

**Q.** And the “Lolium rigidum (Efficacy in %)” value (Lolium rigidum [6]; application rate 80 g/ha)?
**A.** 100%

**Q.** What about the “Matricaria inodora (Efficacy in %)” value (Matricaria inodora [7]; application rate 80 g/ha) of the same compound?
**A.** 100%

**Q.** What about the “Pharbitis purpurea (Efficacy in %)” value (Pharbitis purpurea [8]; application rate 80 g/ha) of the same compound?
**A.** 100%

**Q.** What about the “Polygonum convolvulus (Efficacy in %)” value (Polygonum convolvulus [9]; application rate 80 g/ha) of the same compound?
**A.** 100%

**Q.** What about the “Setaria viridis (Efficacy in %)” value (Setaria viridis [10]; application rate 20 g/ha) of the same compound?
**A.** 100%

**Q.** What about the “Stellaria media (Efficacy in %)” value (Stellaria media [11]; application rate 80 g/ha) of the same compound?
**A.** 100%

**Q.** What about the “Veronica persica (Efficacy in %)” value (Veronica persica [12]; application rate 80 g/ha) of the same compound?
**A.** 100%

**Q.** What about the “Viola tricolor (Efficacy in %)” value (Viola tricolor [13]; application rate 80 g/ha) of the same compound?
**A.** 100%

**Q.** What about the “Zea mays (Efficacy in %)” value (Zea mays; application rate 20 g/ha) of the same compound?
**A.** 20%

**Q.** And the “Abutilon theophrasti (Efficacy in %)” value (Abutilon theophrasti [14]; application rate 80 g/ha)?
**A.** 100%

**Q.** And the “Alopecurus myosuroides (Efficacy in %)” value (Alopecurus myosuroides [15])?
**A.** 90%

**Q.** What about the “Amaranthus retroflexus (Efficacy in %)” value (Amaranthus retroflexus [16]) of the same compound?
**A.** 100%

**Q.** What about the “Avena fatua (Efficacy in %)” value (Avena fatua) of the same compound?
**A.** 90%

**Q.** What about the “Echinochloa crus-galli (Efficacy in %)” value (Echinochloa crus-galli [17]) of the same compound?
**A.** 100%

**Q.** And the “Hordeum murinum (Efficacy in %)” value (Hordeum murinum [18])?
**A.** 90%

**Q.** And the “Lolium rigidum (Efficacy in %)” value (Lolium rigidum [19])?
**A.** 100%

**Q.** And the “Pharbitis purpurea (Efficacy in %)” value (Pharbitis purpurea [20]; application rate 80 g/ha)?
**A.** 100%

**Q.** And the “Polygonum convolvulus (Efficacy in %)” value (Polygonum convolvulus [21]; application rate 80 g/ha)?
**A.** 100%

**Q.** And the “Setaria viridis (Efficacy in %)” value (Setaria viridis [22]; application rate 80 g/ha)?
**A.** 100%

**Q.** And the “Stellaria media (Efficacy in %)” value (Stellaria media [23])?
**A.** 100%

**Q.** And the “Veronica persica (Efficacy in %)” value (Veronica persica [24]; application rate 80 g/ha)?
**A.** 100%

**Q.** What about the “Viola tricolor (Efficacy in %)” value (Viola tricolor [25]; application rate 80 g/ha) of the same compound?
**A.** 100%

**Q.** What about the “Matricaria inodora (Efficacy in %)” value (Matricaria inodora [26]) of the same compound?
**A.** 100%

**Q.** For CC(Sc1cc(-n2c(=O)cc(C(F)(F)F)n(C)c2=O)c(F)cc1Cl)C(=O)OCC(=O)OCc1ccccc1 (centres unmarked) [I.1-46], which “Abutilon theophrasti (Efficacy in %)” value (Abutilon theophrasti [1]; application rate 20 g/ha) is on record?
**A.** 100%

**Q.** And the “Alopecurus myosuroides (Efficacy in %)” value (Alopecurus myosuroides [2]; application rate 20 g/ha)?
**A.** 80%

**Q.** And the “Amaranthus retroflexus (Efficacy in %)” value (Amaranthus retroflexus [3]; application rate 20 g/ha)?
**A.** 100%

**Q.** What about the “Echinochloa crus-galli (Efficacy in %)” value (Echinochloa crus-galli [4]; application rate 20 g/ha) of the same compound?
**A.** 100%

**Q.** And the “Hordeum murinum (Efficacy in %)” value (Hordeum murinum [5]; application rate 20 g/ha)?
**A.** 100%

**Q.** What about the “Lolium rigidum (Efficacy in %)” value (Lolium rigidum [6]; application rate 20 g/ha) of the same compound?
**A.** 80%

**Q.** What about the “Matricaria inodora (Efficacy in %)” value (Matricaria inodora [7]; application rate 20 g/ha) of the same compound?
**A.** 100%

**Q.** And the “Pharbitis purpurea (Efficacy in %)” value (Pharbitis purpurea [8]; application rate 20 g/ha)?
**A.** 100%

**Q.** What about the “Polygonum convolvulus (Efficacy in %)” value (Polygonum convolvulus [9]; application rate 20 g/ha) of the same compound?
**A.** 100%

**Q.** What about the “Setaria viridis (Efficacy in %)” value (Setaria viridis [10]; application rate 20 g/ha) of the same compound?
**A.** 100%

**Q.** And the “Stellaria media (Efficacy in %)” value (Stellaria media [11]; application rate 20 g/ha)?
**A.** 100%

**Q.** What about the “Veronica persica (Efficacy in %)” value (Veronica persica [12]; application rate 20 g/ha) of the same compound?
**A.** 100%

**Q.** And the “Viola tricolor (Efficacy in %)” value (Viola tricolor [13]; application rate 20 g/ha)?
**A.** 100%

**Q.** And the “Triticum aestivum (Efficacy in %)” value (Triticum aestivum; application rate 20 g/ha)?
**A.** 20%

**Q.** What about the “Digitaria sanguinalis (Efficacy in %)” value (Digitaria sanguinalis) of the same compound?
**A.** 100%

**Q.** What does the source list for CC(Sc1cc(-n2c(=O)cc(C(F)(F)F)n(C)c2=O)c(F)cc1Cl)C(=O)OCCC(=O)OC(C)(C)C (centres unmarked) [I.1-5]?
**A.** Abutilon theophrasti (Efficacy in %) (Abutilon theophrasti [1]; application rate 80 g/ha): 100%; Amaranthus retroflexus (Efficacy in %) (Amaranthus retroflexus [3]; application rate 80 g/ha): 100%; Echinochloa crus-galli (Efficacy in %) (Echinochloa crus-galli [4]; application rate 80 g/ha): 100%; Hordeum murinum (Efficacy in %) (Hordeum murinum [5]; application rate 80 g/ha): 80%; Lolium rigidum (Efficacy in %) (Lolium rigidum [6]; application rate 80 g/ha): 80%; Matricaria inodora (Efficacy in %) (Matricaria inodora [7]; application rate 80 g/ha): 100%; Pharbitis purpurea (Efficacy in %) (Pharbitis purpurea [8]; application rate 80 g/ha): 100%; Polygonum convolvulus (Efficacy in %) (Polygonum convolvulus [9]; application rate 80 g/ha): 100%; Setaria viridis (Efficacy in %) (Setaria viridis [10]; application rate 80 g/ha): 100%; Stellaria media (Efficacy in %) (Stellaria media [11]; application rate 80 g/ha): 100%; Veronica persica (Efficacy in %) (Veronica persica [12]; application rate 80 g/ha): 100%; Viola tricolor (Efficacy in %) (Viola tricolor [13]; application rate 20 g/ha): 100%; Triticum aestivum (Efficacy in %) (Triticum aestivum; application rate 80 g/ha): 20%; Abutilon theophrasti (Efficacy in %) (Abutilon theophrasti [14]; application rate 320 g/ha): 100%; Alopecurus myosuroides (Efficacy in %) (Alopecurus myosuroides [15]): 100%; Amaranthus retroflexus (Efficacy in %) (Amaranthus retroflexus [16]): 100%; Avena fatua (Efficacy in %) (Avena fatua): 100%; Cyperus esculentus (Efficacy in %) (Cyperus esculentus): 80%; Echinochloa crus-galli (Efficacy in %) (Echinochloa crus-galli [17]): 100%; Hordeum murinum (Efficacy in %) (Hordeum murinum [18]): 100%; Lolium rigidum (Efficacy in %) (Lolium rigidum [19]): 100%; Pharbitis purpurea (Efficacy in %) (Pharbitis purpurea [20]; application rate 320 g/ha): 100%; Polygonum convolvulus (Efficacy in %) (Polygonum convolvulus [21]; application rate 320 g/ha): 100%; Setaria viridis (Efficacy in %) (Setaria viridis [22]; application rate 320 g/ha): 100%; Stellaria media (Efficacy in %) (Stellaria media [23]): 100%; Veronica persica (Efficacy in %) (Veronica persica [24]; application rate 320 g/ha): 100%; Viola tricolor (Efficacy in %) (Viola tricolor [25]; application rate 320 g/ha): 100%; Matricaria inodora (Efficacy in %) (Matricaria inodora [26]): 100%

**Q.** Which results are given for COC(=O)C1(OC(=O)C(C)Sc2cc(-n3c(=O)cc(C(F)(F)F)n(C)c3=O)c(F)cc2Cl)CC1 (centres unmarked) [I.1-102]?
**A.** Abutilon theophrasti (Efficacy in %) (Abutilon theophrasti [1]; application rate 20 g/ha): 100%; Amaranthus retroflexus (Efficacy in %) (Amaranthus retroflexus [3]; application rate 20 g/ha): 100%; Echinochloa crus-galli (Efficacy in %) (Echinochloa crus-galli [4]; application rate 20 g/ha): 100%; Hordeum murinum (Efficacy in %) (Hordeum murinum [5]; application rate 20 g/ha): 100%; Lolium rigidum (Efficacy in %) (Lolium rigidum [6]; application rate 20 g/ha): 80%; Matricaria inodora (Efficacy in %) (Matricaria inodora [7]; application rate 20 g/ha): 100%; Pharbitis purpurea (Efficacy in %) (Pharbitis purpurea [8]; application rate 20 g/ha): 100%; Polygonum convolvulus (Efficacy in %) (Polygonum convolvulus [9]; application rate 20 g/ha): 100%; Setaria viridis (Efficacy in %) (Setaria viridis [10]; application rate 20 g/ha): 100%; Stellaria media (Efficacy in %) (Stellaria media [11]; application rate 20 g/ha): 80%; Veronica persica (Efficacy in %) (Veronica persica [12]; application rate 20 g/ha): 100%; Viola tricolor (Efficacy in %) (Viola tricolor [13]; application rate 20 g/ha): 100%; Oryza sativa (Efficacy in %) (Oryza sativa): 0%; Zea mays (Efficacy in %) (Zea mays; application rate 5 g/ha): 0%; Digitaria sanguinalis (Efficacy in %) (Digitaria sanguinalis): 100%
